# Experimental data as given in the supplement of paper PMC13380429.
# What was measured:
# Conditions in all cases: 72 h
# Caco-2 [1] = assay: cell viability relative to DMSO; higher = less toxic
# Calu-3 [2] = assay: as above
# HepG2 [3] = assay: as above
# U2OS [4] = assay: as above
# Vero E6 [5] = assay: as above
# Caco-2 [6] = assay: relative viability EC50 (midpoint between 100% and the lowest measured viability); higher = less toxic
# Calu-3 [7] = assay: as above
# HepG2 [8] = assay: as above
# U2OS [9] = assay: as above
# Vero E6 [10] = assay: as above
# Caco-2 [11] = assay: drug sensitivity score (DSS) for viability; higher = more toxic; extreme values may be limits of the assay
# Calu-3 [12] = assay: as above
# HepG2 [13] = assay: as above
# U2OS [14] = assay: as above
# Vero E6 [15] = assay: as above
SMILES,cell viability (Caco-2 [1]; 1 nM) [%],cell viability (Caco-2 [1]; 10 nM) [%],cell viability (Caco-2 [1]; 100 nM) [%],cell viability (Caco-2 [1]; 1000 nM) [%],cell viability (Caco-2 [1]; 10000 nM) [%],cell viability (Calu-3 [2]; 1 nM) [%],cell viability (Calu-3 [2]; 10 nM) [%],cell viability (Calu-3 [2]; 100 nM) [%],cell viability (Calu-3 [2]; 1000 nM) [%],cell viability (Calu-3 [2]; 10000 nM) [%],cell viability (HepG2 [3]; 1 nM) [%],cell viability (HepG2 [3]; 10 nM) [%],cell viability (HepG2 [3]; 100 nM) [%],cell viability (HepG2 [3]; 1000 nM) [%],cell viability (HepG2 [3]; 10000 nM) [%],cell viability (U2OS [4]; 1 nM) [%],cell viability (U2OS [4]; 10 nM) [%],cell viability (U2OS [4]; 100 nM) [%],cell viability (U2OS [4]; 1000 nM) [%],cell viability (U2OS [4]; 10000 nM) [%],cell viability (Vero E6 [5]; 1 nM) [%],cell viability (Vero E6 [5]; 10 nM) [%],cell viability (Vero E6 [5]; 100 nM) [%],cell viability (Vero E6 [5]; 1000 nM) [%],cell viability (Vero E6 [5]; 10000 nM) [%],relative viability EC50 (Caco-2 [6]) [µM],relative viability EC50 (Calu-3 [7]) [µM],relative viability EC50 (HepG2 [8]) [µM],relative viability EC50 (U2OS [9]) [µM],relative viability EC50 (Vero E6 [10]) [µM],drug sensitivity score (Caco-2 [11]),drug sensitivity score (Calu-3 [12]),drug sensitivity score (HepG2 [13]),drug sensitivity score (U2OS [14]),drug sensitivity score (Vero E6 [15])
Cc1ccccc1C(=O)Nc1ccc(C(=O)N2CCCC(O)c3cc(Cl)ccc32)c(C)c1 (stereo not given) [tolvaptan],100,96.4,90.1,89.8,94.1,91,86.3,91.7,78.8,102,99.7,93,96.4,106,110,94.2,92.1,103,97.4,96.7,99.4,100,93.4,98.3,104,> 10,> 10,> 10,> 10,> 10,0.1,0.5,0,0,0
Cn1c(=O)cc(N2CCC[C@@H](N)C2)n(Cc2cc(F)ccc2C#N)c1=O [trelagliptin],101,98.9,92.3,104,95.6,98.9,110,105,102,107,96.7,99.1,88.3,96.5,88.8,104,95.6,96.6,95.1,106,102,98.4,99.2,103,98.2,> 10,> 10,> 10,> 10,> 10,0,0,0,0,0
COc1cc(C(=O)NC2CCCNC2)cc(OC)c1OC (stereo not given) [troxipide],99,103,98.4,97.4,99.6,97.5,91.3,94,106,97.8,103,109,97.4,103,104,106,96.3,102,98.8,101,103,109,101,102,98.4,> 10,> 10,> 10,> 10,> 10,0,0,0,0,0
Clc1ccc(Nc2nnc(Cc3ccncc3)c3ccccc23)cc1 [vatalanib],98.6,99.3,102,94.7,84.5,95.9,89.8,97.5,102,90.3,101,92.4,107,102,83,103,100,100,101,92.7,95.9,93.8,89,88.8,90,> 10,> 10,> 10,> 10,> 10,0.7,0,0.3,0,0.4
Clc1cccc(Cl)c1CSc1nnc(-c2cnccn2)s1 [yoda-1],100,95.3,94.7,92.6,79.6,98.8,91.1,97,98.8,91,84.7,100,97.6,102,91,101,98.9,90.6,92,93,97.4,100,94.2,96,94,> 10,> 10,> 10,> 10,> 10,0.9,0,0,0,0
c1ccc(C(O[C@@H]2CCCN(CCc3ccc4c(c3)OCO4)C2)c2ccccc2)cc1 [zamifenacin],94.8,91.7,98.6,98.3,92.5,104,99.2,97,102,92.2,92.6,107,92.7,108,92.1,104,99.6,98.8,98.3,96,96.9,102,96.7,98.3,94.9,> 10,> 10,> 10,> 10,> 10,0,0,0,0,0
COc1nc(C)cnc1NS(=O)(=O)c1cccnc1-c1ccc(-c2nnco2)cc1 [zibotentan],104,95.2,94.9,101,94.9,105,102,98.9,104,111,99.8,98,102,101,107,95.7,99.4,97.7,103,105,102,96.5,94.4,99.3,102,> 10,> 10,> 10,> 10,> 10,0,0,0,0,0
